Test results taken from patent US7834024B2, “Compositions and methods for inhibition of the JAK pathway” (Rigel Pharmaceuticals, Inc., priority 2007, dated 2010).

Each molecule was assayed on Ramos B-Cell Line Stimulated with IL-4 (JAK-1 and JAK-3 / Stat-6, CD23) (assay: Assay for Ramos B-Cell Line Stimulated with IL-4 (CD23 upregulation, FACS)). Conditions: Homo sapiens, Ramos, human Ramos B cells, compound 1 hour, IL-4 50 units/mL for 20-24 hours, anti-CD23-PE FACS; read-out: Example 2 (IC50).
Assay type: cell-based
Description: One means of assaying for such inhibition is detection of the effect of the 2,4-pyrimidinediamine compounds on the upregulation of downstream gene products. In the Ramos/IL4 assay, B-cells are stimulated with the cytokine Interleukin-4 (IL-4) leading to the activation of the JAK/Stat pathway through phosphorylation of the JAK family kinases, JAK1 and JAK3, which in turn phosphorylate and activate the transcription factor Stat-6. […] To study the effect of inhibitors (e.g., the 2,4-substituted pyrimindinediamine compounds described herein) on the JAK1 and JAK3 kinases, human Ramos B cells are stimulated with human IL-4. 20 to 24 hours post stimulation, cells are stained for upregulation of CD23 and analyzed using flow cytometry (FACS).
B-cells stimulated with cytokine Interleukin-4 (IL-4) activate the JAK/Stat pathway through phosphorylation of the JAK family kinases, JAK-1 and JAK-3, which in turn phosphorylate and activate the transcription factor Stat-6. […] To study the effect of inhibitors on the JAK family kinases, human Ramos B cells were stimulated with human IL-4.
Cells were maintained at a density of 3.5×10^5. The day before the experiment, Ramos B-cells were diluted to 3.5×10^5 cells/mL to ensure that they were in a logarithmic growth phase.
Cells were spun down and suspended in RPMI with 5% serum. 5×10^4 cells were used per point in a 96-well tissue culture plate. Cells were pre-incubated with compound or DMSO (Sigma-Aldrich, St. Louis, Mo., Cat No. D2650) vehicle control for 1 hour in a 37° C. incubator. Cells were then stimulated with IL-4 (Peprotech Inc., Rocky Hill, N.J., Cat No. 200-04) for a final concentration of 50 units/mL for 20-24 hours. […] Detection was performed using a BD LSR I System Flow Cytometer, purchased from Becton Dickinson Biosciences of San Jose, Calif.

| Molecule | IC50 [nM] |
| --- | --- |
| N#Cc1cccc(Nc2ncc(F)c(Nc3cccc(OCC(N)=O)c3)n2)c1 [Compound I-35, N4-(3-Aminocarbonylmethoxyphenyl)-N2-(3-cyanophenyl)-5-fluoro-2,4-pyrimidinediamine] | 326 |
| N#CCOc1cccc(Nc2nc(Nc3ccc(C#N)cc3)ncc2F)c1 [Compound I-46, N4-(3-Cyanomethoxyphenyl)-N2-(4-cyanophenyl)-5-fluoro-2,4-pyrimidinediamine] | 1470 |
| NC(=O)c1ccc(Nc2ncc(F)c(Nc3cccc(-c4ncco4)c3)n2)cc1 [Compound I-13, N2-(4-Aminocarbonylphenyl)-5-fluoro-N4-[3-(oxazol-2-yl)phenyl]-2,4-pyrimidinediamine] | 752 |
| CN1CCN(c2ccc(Nc3ncc(F)c(Nc4ccc(OCC(N)=O)cc4)n3)cc2C(N)=O)CC1 [Compound I-38, N2-[3-Aminocarbonyl-4-(4-methylpiperazin-1-yl)phenyl]-N4-(4-aminocarbonylmethoxyphenyl)-5-fluoro-2,4-pyrimidinediamine] | 533 |
| N#Cc1ccc(Nc2ncc(F)c(Nc3ccc(OCC(N)=O)cc3)n2)cc1 [Compound I-24, N4-(4-Aminocarbonylmethoxyphenyl)-N2-(4-cyanophenyl)-5-fluoro-2,4-pyrimidinediamine] | 245 |
| C#CCOc1ccc(Nc2nc(Nc3cccc(C(N)=S)c3)ncc2F)cc1 [Compound I-5, N2-(3-Aminocarbonothioylphenyl)-5-fluoro-N4-[4-(2-propynyloxy)phenyl]-2,4-pyrimidinediamine] | 1150 |
| CNC(=O)c1cc(Nc2ncc(F)c(Nc3cccc(OCC#N)c3)n2)ccc1N1CCN(C)CC1 [Compound I-55, N4-(3-Cyanomethoxyphenyl)-5-fluoro-N2-[3-methylaminocarbonyl-4-(4-methylpiperazin-1-yl)phenyl]-2,4-pyrimidinediamine] | 38.4 |
| CN1CCN(c2ccc(Nc3ncc(F)c(Nc4ccc(OCC#N)cc4)n3)cc2C(N)=O)CC1 [Compound I-42, N2-[3-Aminocarbonyl-4-(4-methylpiperazin-1-yl)phenyl]-N4-(4-cyanomethoxyphenyl)-5-fluoro-2,4-pyrimidinediamine] | 14 |
| N#CCc1ccc(Nc2nc(Nc3cccc(C(N)=O)c3)ncc2F)cc1 [Compound I-68, N2-(3-Aminocarbonylphenyl)-N4-(4-cyanomethylphenyl)-5-fluoro-2,4-pyrimidinediamine] | 1620 |
| Cc1nc(COc2ccc(Nc3nc(Nc4cccc(C(N)=O)c4)ncc3F)cc2)no1 [Compound I-57, N2-(3-Aminocarbonylphenyl)-5-fluoro-N4-[4-((5-methyl-1,2,4-oxadiazol-3-yl)methoxy)phenyl]-2,4-pyrimidinediamine] | 292 |
| N#CCOc1cccc(Nc2nc(Nc3cccc(C#N)c3)ncc2F)c1 [Compound I-47, N4-(3-Cyanomethoxyphenyl)-N2-(3-cyanophenyl)-5-fluoro-2,4-pyrimidinediamine] | 173 |
| Cc1nc(COc2ccc(Nc3nc(Nc4ccc(C#N)cc4)ncc3F)cc2)no1 [Compound I-58, N2-(4-Cyanophenyl)-5-fluoro-N4-[4-((5-methyl-1,2,4-oxadiazol-3-yl)methoxy)phenyl]-2,4-pyrimidinediamine] | 967 |
| N#CCc1ccc(Nc2nc(Nc3ccc(C#N)cc3)ncc2F)cc1 [Compound I-69, N4-(4-Cyanomethylphenyl)-N2-(4-cyanophenyl)-5-fluoro-2,4-pyrimidinediamine] | 7190 |

Now from value to molecule:

| IC50 [nM] | Molecule |
| --- | --- |
| 760 | CC(C)(C#N)Oc1ccc(Nc2nc(Nc3cccc(C(N)=O)c3)ncc2F)cc1 [Compound I-85, N2-(3-Aminocarbonylphenyl)-N4-[4-(1-cyano-1-methylethoxy)phenyl]-5-fluoro-2,4-pyrimidinediamine] |
| 142 | Cc1cc(Nc2nc(Nc3ccc(CC#N)cc3)ncc2F)ccc1OCC#N [Compound I-86, N4-(4-Cyanomethoxy-3-methylphenyl)-N2-(4-cyanomethylphenyl)-5-fluoro-2,4-pyrimidinediamine] |
| 1740 | CCc1cc(Nc2ncc(F)c(Nc3ccc4c(c3)NC(=O)C(F)(F)O4)n2)cc(C#N)c1Cl [II-24, N2-(4-Chloro-3-cyano-5-ethylphenyl)-N4-(2,2-difluoro-3-oxo-4H-benzo[1,4]oxazin-6-yl)-5-fluoro-2,4-pyrimidinediamine] |
| 1140 | CCc1cc(Nc2ncc(F)c(Nc3ccc(OCC#N)cc3)n2)cc(C#N)c1Cl [Compound I-104, N2-(4-Chloro-3-cyano-5-ethylphenyl)-N4-(4-cyanomethoxyphenyl)-5-fluoro-2,4-pyrimidinediamine] |
| 4820 | CCc1cc(Nc2ncc(F)c(Nc3ccc4c(c3)NC(=O)CO4)n2)cc(C#N)c1Cl [II-27, N2-(4-Chloro-3-cyano-5-ethylphenyl)-5-fluoro-N4-(3-oxo-2H,4H-benzo[1,4]oxazin-6-yl)-2,4-pyrimidinediamine] |
| 609 | Cc1cnc(Nc2ccc(C(N)=O)cc2)nc1Nc1ccc2c(c1)CCC(=O)N2C [II-29, N2-(4-Aminocarbonylphenyl)-5-methyl-N4-(1-methyl-2-oxo-1,2,3,4-tetrahydroquinolin-6-yl)-2,4-pyrimidinediamine] |
| 1150 | N#CCc1ccc(Nc2nc(Nc3cccc(C#N)c3)ncc2F)cc1 [Compound I-70, N4-(4-Cyanomethylphenyl)-N2-(3-cyanophenyl)-5-fluoro-2,4-pyrimidinediamine] |
| 103 | Cc1cc(Nc2nc(Nc3ccc(C(N)=O)cc3)ncc2F)cc(C)c1OC(C)C#N (stereo not drawn) [Compound I-95, N2-(4-Aminocarbonylphenyl)-N4-[4-(1-cyanoethoxy)-3,5-dimethylphenyl]-5-fluoro-2,4-pyrimidinediamine] |
| 331 | Cc1cc(Nc2nc(Nc3cccc(C(N)=O)c3)ncc2F)ccc1OC(C)C#N (stereo not drawn) [Compound I-93, N2-(3-Aminocarbonylphenyl)-N4-[4-(1-cyanoethoxy)-3-methylphenyl]-5-fluoro-2,4-pyrimidinediamine] |

Same assay, conditions: human Ramos B cells, compound 1 hour, IL-4 50 units/mL for 20-24 hours, anti-CD23-PE FACS; read-out: Example 2 (IC50)

| Molecule | IC50 [nM] |
| --- | --- |
| N2-(4-Chloro-3-cyano-5-ethyl phenyl)-N4-(2,2-dimethyl-3-oxo-4H-5-pyrido[1,4]oxazin-6-yl)-5-fluoro-2,4-pyrimidinediamine [II-26] | 16100 |
| CNC(=O)COc1cccc(Nc2ncc(Br)c(Nc3ccc(OC)c(Cl)c3)n2)c1 [Compound I-1, 5-Bromo-N4-(3-chloro-4-methoxyphenyl)-N2-[3-(N-methylaminocarbonylmethyleneoxy)phenyl]-2,4-pyrimidinediamine] | 123 |
| CNC(=O)COc1cccc(Nc2ncc(F)c(Nc3ccc(Cc4ccncc4)cc3)n2)c1 [Compound I-132, 5-Fluoro-N2-[3-(N-methylaminocarbonylmethyleneoxy)phenyl]-N4-[4-(4-pyridinylmethyl)phenyl]-2,4-pyrimidinediamine] | 322 |
| NC(=O)c1cccc(Nc2ncc(F)c(Nc3ccc(OCc4ccccn4)cc3)n2)c1 [Compound I-133, N2-(3-Aminocarbonylphenyl)-5-fluoro-N4-[4-(2-pyridinylmethyleneoxy)phenyl]-2,4-pyrimidinediamine] | 1560 |
| N4-(3-Chloro-4-methoxyphenyl)-N2-[1-(2-(N-morpholinyl)ethylaminocarbonyl)-1H-indol-6-yl]-2,4-pyrimidinediamine [VI-3] | 645 |
| CN1CCN(C(=O)c2ccc(Nc3ncc(F)c(Nc4cccc(OCC#N)c4)n3)cc2)CC1 [Compound I-52, N4-(3-Cyanomethoxyphenyl)-5-fluoro-N2-[4-((4-methylpiperazin-1-yl)carbonyl)phenyl]-2,4-pyrimidinediamine] | 289 |
| N4-(4-(1-Cyanoethoxy)-3,5-dimethyl phenyl]-5-fluoro-N2-[4-((4-methylpiperazin-1-yl)carbonyl)phenyl]-2,4-pyrimidinediamine [Compound I-98] | 276 |
| CC(C#N)Oc1ccc(Nc2nc(Nc3ccc(C#N)cc3)ncc2F)cc1 (stereo not drawn) [Compound I-79, N4-[4-(I-Cyanoethoxy)phenyl]-N2-(4-cyanophenyl)-5-fluoro-2,4-pyrimidinediamine] | 361 |

Next, values leading:

| IC50 [nM] | Molecule |
| --- | --- |
| 599 | CN1CCN(C(=O)c2ccc(Nc3ncc(F)c(Nc4ccc(CC#N)cc4)n3)cc2)CC1 [Compound I-72, N4-(4-Cyanomethylphenyl)-5-fluoro-N2-[4-((4-methylpiperazin-1-yl)carbonyl)phenyl]-2,4-pyrimidinediamine] |
| 177 | Cc1cnc(Nc2cccc(C(N)=O)c2)nc1Nc1ccc2c(c1)NC(=O)CO2 [II-38, N2-(3-Aminocarbonylphenyl)-N4-(3,4-dihydro-2H-3-oxo-4H-benz[1,4]oxazin-6-yl)-5-methyl-2,4-pyrimidinediamine] |
| 480 | CNC(=O)COc1cc(Nc2ncc(F)c(Nc3ccc4c(c3)NC(=O)C(F)(F)O4)n2)cc(OC)c1OC [II-20, N4-(2,2-Difluoro-3-oxo-4H-benzo[1,4]oxazin-6-yl)-N2-[4,5-Dimethoxy-3-(N-methylaminocarbonylmethyleneoxy)phenyl]-5-fluoro-2,4-pyrimidinediamine] |
